In ChEMBL document CHEMBL1201862, “PubChem BioAssay data set” (2004):
Blank lines part the entries; values can stand above or below the compound they belong to. Calls of active or inactive are those of the source.

What was measured:
[1] = target: DNA dC->dU-editing enzyme APOBEC-3A (Homo sapiens, UniProt P31941); experiment: APOBEC3A DNA deaminase inhibitors, dose response, biochemical (AID 504722); assay type: functional
T-cell = experiment: inhibitors of CD8+ T cell–vesicle binding, dose response, mouse 2C CD8+ T cells, flow cytometry (AID 485284); assay type: functional
[2] = target: Glucose-6-phosphate 1-dehydrogenase (Homo sapiens, UniProt P11413); experiment: human G6PD enzyme inhibitors, dose response, selectivity assay for P. falciparum G6PD inhibitor project, biochemical, fluorescence (AID 504792); assay type: functional
Sequence of Glucose-6-phosphate 1-dehydrogenase (P11413 whole entry): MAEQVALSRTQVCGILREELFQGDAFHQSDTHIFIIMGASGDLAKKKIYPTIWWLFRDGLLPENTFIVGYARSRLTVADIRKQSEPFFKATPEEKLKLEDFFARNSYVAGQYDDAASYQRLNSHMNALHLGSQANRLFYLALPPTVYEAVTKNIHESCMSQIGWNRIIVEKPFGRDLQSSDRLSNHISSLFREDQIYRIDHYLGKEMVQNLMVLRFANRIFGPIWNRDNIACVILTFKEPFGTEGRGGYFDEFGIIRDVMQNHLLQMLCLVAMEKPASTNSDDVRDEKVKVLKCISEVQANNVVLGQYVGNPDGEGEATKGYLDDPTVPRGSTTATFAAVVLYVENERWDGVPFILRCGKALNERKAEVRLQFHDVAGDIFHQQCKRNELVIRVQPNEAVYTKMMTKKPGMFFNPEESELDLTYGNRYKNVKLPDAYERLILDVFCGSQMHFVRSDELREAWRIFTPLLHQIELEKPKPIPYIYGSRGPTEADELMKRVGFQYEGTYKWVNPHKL

[3] = target: DNA dC->dU-editing enzyme APOBEC-3G (Homo sapiens, UniProt Q9HC16); experiment: Dose Response confirmation of small molecule APOBEC3G DNA Deaminase Inhibitors via a fluorescence-based single-stranded DNA deaminase assay. [Related pubchem assays (depositor defined):AID493012, AID493028]; assay type: functional
Sequence of DNA dC->dU-editing enzyme APOBEC-3G (Q9HC16 whole entry): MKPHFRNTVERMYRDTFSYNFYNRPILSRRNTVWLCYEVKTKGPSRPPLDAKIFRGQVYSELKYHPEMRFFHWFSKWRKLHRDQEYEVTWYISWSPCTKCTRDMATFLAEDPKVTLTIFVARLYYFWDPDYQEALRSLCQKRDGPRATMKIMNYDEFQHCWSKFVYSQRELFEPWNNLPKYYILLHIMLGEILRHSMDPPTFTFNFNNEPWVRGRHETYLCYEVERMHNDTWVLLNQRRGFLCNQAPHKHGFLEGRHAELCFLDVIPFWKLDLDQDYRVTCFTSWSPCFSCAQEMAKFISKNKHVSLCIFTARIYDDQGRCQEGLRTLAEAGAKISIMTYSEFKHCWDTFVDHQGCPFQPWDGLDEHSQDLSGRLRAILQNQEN

[4] = target: Phosphoethanolamine/phosphocholine phosphatase (Homo sapiens, UniProt Q8TCT1); experiment: SAR assay for compounds that inhibit PHOSPHO1. [Related pubchem assays (depositor defined):AID1545, AID1565, AID1574]
Sequence of Phosphoethanolamine/phosphocholine phosphatase (Q8TCT1 whole entry): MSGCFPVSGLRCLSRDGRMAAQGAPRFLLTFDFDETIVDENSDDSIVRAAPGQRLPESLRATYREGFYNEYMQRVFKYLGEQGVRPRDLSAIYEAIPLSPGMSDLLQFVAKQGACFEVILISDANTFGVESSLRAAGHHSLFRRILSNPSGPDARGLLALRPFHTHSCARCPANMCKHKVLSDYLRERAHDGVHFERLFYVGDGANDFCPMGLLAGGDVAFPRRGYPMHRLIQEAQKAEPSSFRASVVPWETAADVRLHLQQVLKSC

[5] = target: T1, Alkaline phosphatase, tissue-nonspecific isozyme (Homo sapiens, UniProt P05186); experiment: human TNAP enzyme inhibitors, SAR follow-up, biochemical, luminescent, dose response (AID 1056)
T1 sequence (P05186 whole entry): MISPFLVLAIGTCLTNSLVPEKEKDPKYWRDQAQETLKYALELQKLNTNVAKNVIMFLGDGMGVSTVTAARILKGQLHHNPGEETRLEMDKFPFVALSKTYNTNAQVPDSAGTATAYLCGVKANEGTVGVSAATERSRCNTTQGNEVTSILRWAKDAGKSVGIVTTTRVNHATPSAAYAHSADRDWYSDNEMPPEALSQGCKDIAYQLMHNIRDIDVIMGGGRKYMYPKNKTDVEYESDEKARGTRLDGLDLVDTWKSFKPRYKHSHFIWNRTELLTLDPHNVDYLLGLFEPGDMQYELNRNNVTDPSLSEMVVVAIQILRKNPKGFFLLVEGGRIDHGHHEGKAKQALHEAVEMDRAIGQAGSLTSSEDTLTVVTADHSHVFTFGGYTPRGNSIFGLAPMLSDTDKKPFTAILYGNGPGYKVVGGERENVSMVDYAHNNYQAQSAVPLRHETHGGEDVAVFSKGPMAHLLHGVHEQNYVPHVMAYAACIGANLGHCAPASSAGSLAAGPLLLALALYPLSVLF

[6] = HeLa cell cytotoxicity, dose response, cytotoxicity control for MgcRacGAP inhibitor project (AID 624300); assay type: functional
[7] = target: T2, Rac GTPase-activating protein 1 (Homo sapiens, UniProt Q9H0H5); experiment: MgcRacGAP GTPase-activating activity inhibitors, confirmation, biochemical, ADP Hunter fluorescence, primary and confirmatory (AID 624330); assay type: functional
T2 sequence (Q9H0H5 whole entry): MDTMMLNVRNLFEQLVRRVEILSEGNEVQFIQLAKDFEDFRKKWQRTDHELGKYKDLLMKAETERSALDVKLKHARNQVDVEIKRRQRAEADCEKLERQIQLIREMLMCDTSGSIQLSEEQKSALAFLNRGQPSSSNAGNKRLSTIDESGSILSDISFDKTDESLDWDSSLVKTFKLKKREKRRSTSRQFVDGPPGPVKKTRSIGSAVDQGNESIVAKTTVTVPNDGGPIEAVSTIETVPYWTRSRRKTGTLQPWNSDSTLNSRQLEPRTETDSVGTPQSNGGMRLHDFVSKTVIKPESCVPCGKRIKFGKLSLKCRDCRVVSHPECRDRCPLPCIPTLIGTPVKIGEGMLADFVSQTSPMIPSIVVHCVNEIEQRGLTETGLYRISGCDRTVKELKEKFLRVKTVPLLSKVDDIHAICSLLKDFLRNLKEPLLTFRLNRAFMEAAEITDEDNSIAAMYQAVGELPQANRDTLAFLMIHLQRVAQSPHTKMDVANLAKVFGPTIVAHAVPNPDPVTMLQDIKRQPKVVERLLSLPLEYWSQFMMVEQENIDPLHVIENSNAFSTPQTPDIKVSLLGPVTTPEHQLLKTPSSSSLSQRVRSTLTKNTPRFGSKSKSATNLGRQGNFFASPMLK

Phosphomannomutase 2 = Phosphomannomutase 2 (Homo sapiens, UniProt O15305); experiment: Counter screen SAR assay for PMM2 inhibitors via a fluorescence intensity assay. [Related pubchem assays (depositor defined):AID1545, AID1574]
Sequence of Phosphomannomutase 2 (O15305 whole entry): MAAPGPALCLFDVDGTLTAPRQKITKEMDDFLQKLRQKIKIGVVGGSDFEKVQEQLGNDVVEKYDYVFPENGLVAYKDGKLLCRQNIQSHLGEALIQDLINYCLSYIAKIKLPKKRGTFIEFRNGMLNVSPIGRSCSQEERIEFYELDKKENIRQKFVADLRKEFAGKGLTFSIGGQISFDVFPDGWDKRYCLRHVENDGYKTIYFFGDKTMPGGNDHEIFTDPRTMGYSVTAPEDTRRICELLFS

[8] = cytotoxicity in NIH/3T3 mouse fibroblasts, dose response, cytotoxicity control, cell-based, mouse embryonic fibroblasts, dry powder, set 2 (AID 493247); assay type: functional; conditions: Fibroblast
Trypanosoma cruzi = experiment: growth inhibition of intracellular Trypanosoma cruzi, dose response, cell-based, plate reader, dry powder, set 3 (AID 493197); assay type: functional
[9] = target: T3, Kappa-type opioid receptor (Homo sapiens, UniProt P41145); experiment: SAR analysis of Antagonists of the Kappa Opioid Receptor (KOR) using an Image-Based Assay - Set 4. [Related pubchem assays (depositor defined):AID1777, AID1785]; assay type: functional
T3 sequence (P41145 whole entry): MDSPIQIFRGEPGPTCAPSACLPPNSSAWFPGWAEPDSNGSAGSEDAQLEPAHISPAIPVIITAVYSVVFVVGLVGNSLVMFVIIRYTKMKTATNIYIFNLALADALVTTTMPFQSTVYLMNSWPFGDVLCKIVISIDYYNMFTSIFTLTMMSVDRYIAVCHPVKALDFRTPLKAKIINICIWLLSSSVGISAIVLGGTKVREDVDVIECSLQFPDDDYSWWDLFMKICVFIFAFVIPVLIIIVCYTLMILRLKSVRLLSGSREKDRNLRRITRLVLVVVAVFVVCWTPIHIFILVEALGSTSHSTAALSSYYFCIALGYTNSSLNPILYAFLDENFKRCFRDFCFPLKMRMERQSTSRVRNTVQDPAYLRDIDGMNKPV

[10] = target: T3, Kappa-type opioid receptor; experiment: SAR analysis of small molecule antagonists of the kappa opioid receptor via a luminescent beta-arrestin assay - Set 4. [Related pubchem assays (depositor defined):AID1777, AID1778, AID1785, AID1786, AID1966, AID2133, AID2136, AID2285]; assay type: functional
[11] = target: T3, Kappa-type opioid receptor; experiment: SAR analysis of small molecule antagonists of the kappa opioid receptor via a luminescent beta-arrestin assay - Set 6. [Related pubchem assays (depositor defined):AID1777, AID1778, AID1785, AID1786, AID1966, AID2133, AID2136, AID2285]; assay type: functional
Mu-type opioid receptor = Mu-type opioid receptor (Homo sapiens, UniProt P35372); experiment: SAR Analysis of Antagonists of the MOR Receptor using an Image-Based Assay - Set 3. [Related pubchem assays (depositor defined):AID1777, AID1785, AID1786, AID1966, AID2133, AID2136, AID2284, AID2285, AID2420]; assay type: functional
Sequence of Mu-type opioid receptor (P35372 whole entry): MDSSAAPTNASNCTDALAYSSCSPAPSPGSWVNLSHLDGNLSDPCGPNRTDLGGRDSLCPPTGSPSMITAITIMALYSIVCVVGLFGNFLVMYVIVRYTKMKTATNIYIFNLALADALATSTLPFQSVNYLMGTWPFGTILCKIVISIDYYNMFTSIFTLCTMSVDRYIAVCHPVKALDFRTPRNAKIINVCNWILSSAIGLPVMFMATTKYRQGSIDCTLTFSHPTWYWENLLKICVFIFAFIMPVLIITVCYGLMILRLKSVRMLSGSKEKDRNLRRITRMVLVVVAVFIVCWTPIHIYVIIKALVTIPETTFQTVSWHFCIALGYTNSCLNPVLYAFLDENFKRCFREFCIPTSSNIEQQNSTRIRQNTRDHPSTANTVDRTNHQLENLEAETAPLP

[12] = target: Delta-type opioid receptor (Homo sapiens, UniProt P41143); experiment: SAR Analysis of Antagonists of the DOR Receptor using an Image-Based Assay - Set 3. [Related pubchem assays (depositor defined):AID1777, AID1785]; assay type: functional;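 further: U2OS cells expressing DOR1 and beta-arrestin GFP stimulated with 100 nM SNC80; imaging of GFP-tagged beta-arrestin moving into spots after receptor activation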
Sequence of Delta-type opioid receptor (P41143 whole entry): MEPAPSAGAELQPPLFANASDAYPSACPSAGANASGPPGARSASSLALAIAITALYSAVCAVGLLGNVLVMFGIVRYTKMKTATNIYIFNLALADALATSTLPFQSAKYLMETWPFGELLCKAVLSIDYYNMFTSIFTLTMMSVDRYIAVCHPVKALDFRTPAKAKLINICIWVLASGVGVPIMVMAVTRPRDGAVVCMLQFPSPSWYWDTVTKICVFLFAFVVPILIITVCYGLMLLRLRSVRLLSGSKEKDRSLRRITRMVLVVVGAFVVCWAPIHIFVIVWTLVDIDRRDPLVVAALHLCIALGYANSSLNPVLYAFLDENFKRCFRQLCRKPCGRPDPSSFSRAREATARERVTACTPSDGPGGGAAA

Hexokinase = Hexokinase (Trypanosoma brucei, UniProt Q38C41); experiment: Confirmation assay for inhibitors of Trypanosoma brucei hexokinase 1-Analogue-first series. [Related pubchem assays (depositor defined):AID1430, AID1632, AID2516, AID2560, AID2579, AID2600, AID449725, AID492951]; assay type: functional
Sequence of Hexokinase (Q38C41 whole entry): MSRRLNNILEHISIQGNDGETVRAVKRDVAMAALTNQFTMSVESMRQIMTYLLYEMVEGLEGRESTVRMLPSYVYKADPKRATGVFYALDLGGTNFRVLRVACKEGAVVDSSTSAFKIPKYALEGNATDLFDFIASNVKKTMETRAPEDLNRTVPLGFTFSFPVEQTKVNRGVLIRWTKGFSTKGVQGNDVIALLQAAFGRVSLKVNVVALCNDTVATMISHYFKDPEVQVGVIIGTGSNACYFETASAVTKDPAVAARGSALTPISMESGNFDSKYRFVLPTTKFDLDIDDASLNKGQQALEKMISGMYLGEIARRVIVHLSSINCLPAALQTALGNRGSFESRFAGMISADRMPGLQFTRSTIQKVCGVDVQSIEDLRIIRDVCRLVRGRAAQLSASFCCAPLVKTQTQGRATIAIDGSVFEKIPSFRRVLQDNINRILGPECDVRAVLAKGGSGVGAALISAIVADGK

[13] = target: T4, Tyrosine-protein phosphatase non-receptor type 7 (Homo sapiens, UniProt P35236); experiment: SAR analysis of chemical inhibitors of HePTP using a Fluorescent assay - Set 2. [Related pubchem assays (depositor defined):AID1059, AID1077, AID1661, AID2085, AID521]; assay type: functional
T4 sequence (P35236 whole entry): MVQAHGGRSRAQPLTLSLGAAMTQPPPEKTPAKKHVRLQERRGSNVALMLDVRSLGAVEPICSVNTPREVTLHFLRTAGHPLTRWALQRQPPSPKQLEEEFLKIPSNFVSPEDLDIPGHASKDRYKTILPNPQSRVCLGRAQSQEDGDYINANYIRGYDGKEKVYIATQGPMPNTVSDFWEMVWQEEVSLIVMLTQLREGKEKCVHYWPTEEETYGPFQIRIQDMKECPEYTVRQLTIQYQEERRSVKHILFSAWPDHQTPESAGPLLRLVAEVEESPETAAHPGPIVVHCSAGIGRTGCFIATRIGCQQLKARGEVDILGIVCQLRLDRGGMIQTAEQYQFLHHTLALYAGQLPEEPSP

[14] = target: Dual specificity protein phosphatase 3 (Homo sapiens, UniProt P51452); experiment: SAR VHR1 Fluorescent Assay for In Vitro dose response studies Set 2. [Related pubchem assays (depositor defined):AID1654, AID1661, AID1878]; assay type: functional
Sequence of Dual specificity protein phosphatase 3 (P51452 whole entry): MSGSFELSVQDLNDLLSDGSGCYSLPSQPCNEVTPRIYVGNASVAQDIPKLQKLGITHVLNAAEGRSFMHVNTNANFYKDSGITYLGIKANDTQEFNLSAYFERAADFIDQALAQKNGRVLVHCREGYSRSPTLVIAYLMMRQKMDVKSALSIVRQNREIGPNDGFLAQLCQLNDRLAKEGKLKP

[15] = target: Sphingosine 1-phosphate receptor 4 (Homo sapiens, UniProt O95977); experiment: S1P4 receptor agonists, human, late-stage follow-up, cell-based, fluorescence, synthesized compounds (AID 463107); assay type: functional
Sequence of Sphingosine 1-phosphate receptor 4 (O95977 whole entry): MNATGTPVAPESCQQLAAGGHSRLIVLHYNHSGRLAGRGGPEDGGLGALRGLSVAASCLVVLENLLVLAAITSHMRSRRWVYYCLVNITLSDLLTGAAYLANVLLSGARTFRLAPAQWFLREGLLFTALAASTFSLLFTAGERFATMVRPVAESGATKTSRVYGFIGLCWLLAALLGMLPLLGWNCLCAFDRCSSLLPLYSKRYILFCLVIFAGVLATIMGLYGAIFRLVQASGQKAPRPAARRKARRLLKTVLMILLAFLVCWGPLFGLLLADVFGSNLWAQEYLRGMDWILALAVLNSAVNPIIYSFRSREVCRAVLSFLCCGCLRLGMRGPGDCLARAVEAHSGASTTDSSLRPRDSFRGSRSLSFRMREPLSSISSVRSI

Sequence of DNA dC->dU-editing enzyme APOBEC-3A (P31941 whole entry): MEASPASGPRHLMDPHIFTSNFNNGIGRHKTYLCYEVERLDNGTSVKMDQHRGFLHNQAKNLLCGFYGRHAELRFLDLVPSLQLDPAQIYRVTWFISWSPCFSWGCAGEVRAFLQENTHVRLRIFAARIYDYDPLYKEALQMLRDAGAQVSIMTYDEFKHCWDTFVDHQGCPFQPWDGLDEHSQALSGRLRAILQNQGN

Structure (SMILES): Cc1ccc(C)c(-n2sc3ccc(F)cc3c2=O)c1
IC50 [1]: > 100 µM (inactive)
EC50 (T-cell): 3.62 µM (active)
IC50 [2]: 11.3 µM (active)
IC50 [3]: 13.5 µM (active)
IC50 [4]: 7.43 µM (inactive)
IC50 [5]: > 100 µM (inactive)
CC50 [6]: 67.5 µM (active)
IC50 [7]: 34 µM (active)
IC50 (Phosphomannomutase 2): 31.3 µM (active)

Structure (SMILES): O=C(CCc1ccccc1)N/N=C/c1ccc([N+](=O)[O-])o1
AC50 [8]: 26.3 µM (active)
AC50 (Trypanosoma cruzi): 0.335 µM (active)

IC50 [9]: 0.168 µM (active)
IC50 [10]: 3.01 µM (active)
IC50 [11]: 4.73 µM (active)
IC50 (Mu-type opioid receptor): > 32 µM (inactive)
IC50 [12]: > 32 µM (inactive)
Structure (SMILES): CCCCc1ccc(S(=O)(=O)NCc2ccc(C(=O)NCCN(Cc3ccccc3)C(C)C)cc2)cc1

Structure (SMILES): O=c1c(Br)csn1-c1ccc(Br)cc1
IC50 (Hexokinase): 11.1 µM (active)

Structure (SMILES): COc1ccc(OC)c(C(=S)NCc2cccc(F)c2)c1
IC50 [13]: 64 µM (active)
IC50 [14]: 65.2 µM (active)

EC50 [15]: > 50 µM (inactive)
Structure (SMILES): Cc1ccc(OCCOc2ccccc2C(F)(F)F)c([N+](=O)[O-])n1
